Experimental data reported in US12091402B2 (Avilar Therapeutics, Inc., priority 2021, dated 2024).
Where a SMILES comes first, the peptide text is derived from it. Bridges are numbered along the chain shown (N, C = ends). The star is where a group is joined. X4 = O=C(CCCc1cn(C[C@H]2OC[C@H](Nc3nccc(C(F)(F)F)n3)[C@@H](O)[C@H]2O)nn1)*; PEG4 = NCCOCCOCCOCCOCCC(=O)O

Molecular target: T1, ASGPR (Homo sapiens, UniProt P07306)
T1 sequence (P07306 1-291): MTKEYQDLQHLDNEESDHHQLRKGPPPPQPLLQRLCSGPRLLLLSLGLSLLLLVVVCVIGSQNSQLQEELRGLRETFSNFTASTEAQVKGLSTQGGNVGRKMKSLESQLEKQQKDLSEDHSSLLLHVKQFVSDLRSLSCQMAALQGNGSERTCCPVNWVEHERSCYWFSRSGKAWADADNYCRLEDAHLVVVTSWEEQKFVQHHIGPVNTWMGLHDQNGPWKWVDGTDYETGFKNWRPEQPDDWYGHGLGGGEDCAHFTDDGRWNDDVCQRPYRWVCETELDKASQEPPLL
Assay: Affinity to ASGPR by surface plasmon resonance (SPR)

Kd | SMILES
< 1000 nM | OC[C@H]1OC[C@H](Nc2nc(C(F)(F)F)ccc2F)[C@@H](O)[C@H]1O [A77, (2R,3R,4R,5S)-5-((3-fluoro-6-(trifluoromethyl)pyridin-2-yl)amino)-2-(hydroxymethyl)tetrahydro-2H-pyran-3,4-diol]
> 20000 nM | OC[C@H]1OC[C@H](Nc2cc(C(F)(F)F)nc(Cl)n2)[C@@H](O)[C@H]1O [A78, (2R,3R,4R,5S)-5-((2-chloro-6-(trifluoromethyl)pyrimidin-4-yl)amino)-2-(hydroxymethyl)tetrahydro-2H-pyran-3,4-diol]
1000 to 10000 nM | COCCO[C@@H]1O[C@H](CO)[C@H](O)[C@H](O)[C@H]1Nc1cncc(C(F)(F)F)n1 [A105, (2R,3R,4R,5R,6R)-2-(hydroxymethyl)-6-(2-methoxyethoxy)-5-((6-(trifluoromethyl)pyrazin-2-yl)amino)tetrahydro-2H-pyran-3,4-diol]
< 100 nM | O=C(CCOCC(COCCC(=O)NCCOCCOCCOCCOC[C@H]1OC[C@H](Nc2nccc(C(F)(F)F)n2)[C@@H](O)[C@H]1O)NC(=O)COCCOCCOCC(=O)NCCN1C(=O)C=CC1=O)NCCOCCOCCOCCOC[C@H]1OC[C@H](Nc2nccc(C(F)(F)F)n2)[C@@H](O)[C@H]1O [A130]
> 20000 nM | N#Cc1nc(N[C@H]2CO[C@H](CO)[C@H](O)[C@@H]2O)cc(C(F)(F)F)n1 [A79, 4-(((3S,4R,5R,6R)-4,5-dihydroxy-6-(hydroxymethyl)tetrahydro-2H-pyran-3-yl)amino)-6-(trifluoromethyl)pyrimidine-2-carbonitrile]
< 1000 nM | CN(C)C[C@H]1OC[C@H](Nc2cncc(C(F)(F)F)n2)[C@@H](O)[C@H]1O [A126]
> 20000 nM | O=C(NC[C@H]1OC[C@H](Nc2cncc(C(F)(F)F)n2)[C@@H](O)[C@H]1O)[C@H]1C[C@H]1F [A108, (1R,2R)—N-(((2R,3R,4R,5S)-3,4-dihydroxy-5-((6-(trifluoromethyl)pyrazin-2-yl)amino)tetrahydro-2H-pyran-2-yl)methyl)-2-fluorocyclopropane-1-carboxamide]
< 1000 nM | OC[C@H]1O[C@H](OCC2CO2)[C@H](Nc2nccc(C(F)(F)F)n2)[C@@H](O)[C@H]1O (stereo partly drawn) [A76, (2R,3R,4R,5R,6S)-2-(hydroxymethyl)-6-(oxiran-2-ylmethoxy)-5-((4-(trifluoromethyl)pyrimidin-2-yl)amino)tetrahydro-2H-pyran-3,4-diol]
1000 to 10000 nM | CCOC(=O)c1ccc(Cl)nc1N[C@H]1[C@H]2OC[C@](CO)(O2)[C@H](O)[C@@H]1O [A112, ethyl 6-chloro-2-(((1S,2R,3R,4R,5S)-2,3-dihydroxy-1-(hydroxymethyl)-6,8-dioxabicyclo[3.2.1]octan-4-yl)amino)nicotinate]
1000 to 10000 nM | COCCO[C@@H]1O[C@H](CO)[C@H](O)[C@H](O)[C@H]1NC(=O)C(F)(F)F [A104, N-((2R,3R,4R,5R,6R)-4,5-dihydroxy-6-(hydroxymethyl)-2-(2-methoxyethoxy)tetrahydro-2H-pyran-3-yl)-2,2,2-trifluoroacetamide]
< 1000 nM | OC[C@@]12CO[C@@H](O1)[C@H](Nc1nc(Cl)ncc1C(F)(F)F)[C@@H](O)[C@H]2O [A114, (1S,2R,3R,4R,5S)-4-((2-chloro-5-(trifluoromethyl)pyrimidin-4-yl)amino)-1-(hydroxymethyl)-6,8-dioxabicyclo[3.2.1]octane-2,3-diol]
1000 to 10000 nM | OC[C@H]1OC[C@H](Nc2ccc(F)c(C(F)(F)F)n2)[C@@H](O)[C@H]1O [A82, (2R,3R,4R,5S)-5-((5-fluoro-6-(trifluoromethyl)pyridin-2-yl)amino)-2-(hydroxymethyl)tetrahydro-2H-pyran-3,4-diol]

Second part, the compound before the results:

SMILES | Kd
C=CCO[C@H]1O[C@H](Cn2cc(-c3cccc(OC)c3)nn2)[C@H](O)[C@H](O)[C@H]1NC(=O)C(F)(F)F [A57, N-((2S,3R,4R,5R,6R)-2-(allyloxy)-4,5-dihydroxy-6-((4-(3-methoxyphenyl)-1H-1,2,3-triazol-1-yl)methyl)tetrahydro-2H-pyran-3-yl)-2,2,2-trifluoroacetamide] | 1000 to 10000 nM
C[C@@H]1O[C@H](CO)[C@H](O)[C@H](O)[C@H]1Nc1nc(Cl)ns1 [A56, (2R,3R,4R,5R,6S)-5-((3-chloro-1,2,4-thiadiazol-5-yl)amino)-2-(hydroxymethyl)-6-methyltetrahydro-2H-pyran-3,4-diol] | 1000 to 10000 nM
OC[C@@]12CO[C@@H](O1)[C@H](Nc1nc3ccccc3o1)[C@@H](O)[C@H]2O [A45, (1S,2R,3R,4R,5S)-4-(benzo[d]oxazol-2-ylamino)-1-(hydroxymethyl)-6,8-dioxabicyclo[3.2.1]octane-2,3-diol] | 1000 to 10000 nM
CN(c1nccc(C(F)(F)F)n1)[C@H]1CO[C@H](CO)[C@H](O)[C@@H]1O [A60, (2R,3R,4R,5S)-2-(hydroxymethyl)-5-(methyl(4-(trifluoromethyl)pyrimidin-2-yl)amino)tetrahydro-2H-pyran-3,4-diol] | 1000 to 10000 nM
C[C@@H]1O[C@H](CO)[C@H](O)[C@H](O)[C@H]1N=[N+]=[N-] [A50, (2R,3R,4R,5R,6S)-5-azido-2-(hydroxymethyl)-6-methyltetrahydro-2H-pyran-3,4-diol] | > 20000 nM
[N-]=[N+]=NCCCCCC(=O)NC(COCCC(=O)NCCOCCOCCOCCOC[C@H]1OC[C@H](Nc2cncc(C(F)(F)F)n2)[C@@H](O)[C@H]1O)COCCC(=O)NCCOCCOCCOCCOC[C@H]1OC[C@H](Nc2cncc(C(F)(F)F)n2)[C@@H](O)[C@H]1O [A2, 3,3′-((2-(6-azidohexanamido)propane-1,3-diyl)bis(oxy))bis(N-(1-((2R,3R,4R,5S)-3,4-dihydroxy-5-((6-(trifluoromethyl)pyrazin-2-yl)amino)tetrahydro-2H-pyran-2-yl)-2,5,8,11-tetraoxatridecan-13-yl)propanamide)] | < 100 nM
O=C(O)COc1ccc(COC[C@H]2OC[C@H](Nc3cncc(C(F)(F)F)n3)[C@@H](O)[C@H]2O)cc1 [A19, 2-(4-((((2R,3R,4R,5S)-3,4-dihydroxy-5-((6-(trifluoromethyl)pyrazin-2-yl)amino)tetrahydro-2H-pyran-2-yl)methoxy)methyl)phenoxy)acetic acid] | < 100 nM
OC[C@H]1OC[C@H](Nc2ncnn3cccc23)[C@@H](O)[C@H]1O [A49, (2R,3R,4R,5S)-2-(hydroxymethyl)-5-(pyrrolo[2,1-f][1,2,4]triazin-4-ylamino)tetrahydro-2H-pyran-3,4-diol] | 1000 to 10000 nM
Cc1cc(C#N)nc(N[C@H]2[C@H]3OC[C@](CO)(O3)[C@H](O)[C@@H]2O)n1 [A38, 2-[[(1S,2R,3R,4R,5S)-2,3-dihydroxy-1-(hydroxymethyl)-6,8-dioxabicyclo[3.2.1]octan-4-yl]amino]-6-methyl-pyrimidine-4-carbonitrile] | 1000 to 10000 nM
OCc1cn(C[C@H]2OC[C@H](Nc3nccc(C(F)(F)F)n3)[C@@H](O)[C@H]2O)nn1 [A68, (2R,3R,4R,5S)-2-((4-(hydroxymethyl)-1H-1,2,3-triazol-1-yl)methyl)-5-((4-(trifluoromethyl)pyrimidin-2-yl)amino)tetrahydro-2H-pyran-3,4-diol] | < 1000 nM
C[Si](C)(C)c1cn(C[C@H]2OC[C@H](Nc3nccc(C(F)(F)F)n3)[C@@H](O)[C@H]2O)nn1 [A66, (2R,3R,4R,5S)-5-((4-(trifluoromethyl)pyrimidin-2-yl)amino)-2-((4-(trimethylsilyl)-1H-1,2,3-triazol-1-yl)methyl)tetrahydro-2H-pyran-3,4-diol] | 1000 to 10000 nM
CC(C)C[C@@H]1NC(=O)[C@@H](NC(=O)[C@@H](NC(=O)[C@H](CCC(N)=O)NC(=O)[C@H](Cc2c[nH]cn2)NC(=O)CCOCCOCCOCCOCCNC(=O)CCCc2cn(C[C@H]3OC[C@H](Nc4nccc(C(F)(F)F)n4)[C@@H](O)[C@H]3O)nn2)C(C)C)CSSC[C@@H](C(=O)N[C@@H](Cc2ccccc2)C(=O)N[C@@H](CO)C(=O)N[C@H](C(N)=O)[C@@H](C)O)NC(=O)[C@H](C(C)C)NC(=O)[C@@H]2CCCN2C(=O)[C@H](CCCNC(=N)N)NC(=O)CNC(=O)[C@H](CCCNC(=N)N)NC(=O)[C@H](Cc2ccc(O)cc2)NC(=O)[C@H](CO)NC1=O [Compound 18] ({X4-PEG4}-HQVCLSYRGRPVCFST-NH2; disulfide 4-13) | 500 to 1000 nM
COc1cccc(-c2cn(C[C@H]3OC[C@H](Nc4nccc(C(F)(F)F)n4)[C@@H](O)[C@H]3O)nn2)c1 [A65, (2R,3R,4R,5S)-2-((4-(3-methoxyphenyl)-1H-1,2,3-triazol-1-yl)methyl)-5-((4-(trifluoromethyl)pyrimidin-2-yl)amino)tetrahydro-2H-pyran-3,4-diol] | < 1000 nM
O=C(O)COCCOCCOCC(=O)NC(COCCC(=O)NCCOCCOCCOCCOC[C@H]1OC[C@H](Nc2cncc(C(F)(F)F)n2)[C@@H](O)[C@H]1O)COCCC(=O)NCCOCCOCCOCCOC[C@H]1OC[C@H](Nc2cncc(C(F)(F)F)n2)[C@@H](O)[C@H]1O [A26, 1-((2R,3R,4R,5S)-3,4-dihydroxy-5-((6-(trifluoromethyl)pyrazin-2-yl)amino)tetrahydro-2H-pyran-2-yl)-20-(1-((2R,3R,4R,5S)-3,4-dihydroxy-5-((6-(trifluoromethyl)pyrazin-2-yl)amino)tetrahydro-2H-pyran-2-yl)-15-oxo-2,5,8,11,18-pentaoxa-14-azanonadecan-19-yl)-15,22-dioxo-2,5,8,11,18,24,27,30-octaoxa-14,21-diazadotriacontan-32-oic acid] | < 100 nM
O=C(O)CC(=O)NC(COCCC(=O)NC[C@H]1OC[C@H](Nc2cncc(C(F)(F)F)n2)[C@@H](O)[C@H]1O)COCCC(=O)NC[C@H]1OC[C@H](Nc2cncc(C(F)(F)F)n2)[C@@H](O)[C@H]1O [A33, 3-((1,15-bis((2R,3R,4R,5S)-3,4-dihydroxy-5-((6-(trifluoromethyl)pyrazin-2-yl)amino)tetrahydro-2H-pyran-2-yl)-3,13-dioxo-6,10-dioxa-2,14-diazapentadecan-8-yl)amino)-3-oxopropanoic acid] | < 100 nM
